# Experimental data published in patent US20050136481A1, “Systems and methods for predicting the structure and function of multipass transmembrane proteins” (priority 2003, published 2005).
# Experiments:
# rhodopsin [1] = biological target: T1, rhodopsin (Bos taurus, UniProt P02699); details: Okada et al., 2001; cited from earlier work
# bovine rhodopsin = bovine rhodopsin (Bos taurus, UniProt P02699); test: HierDock binding energy calculation (Eq. 1) of retinal ligands docked into the rhodopsin structure; details: all-trans-retinal versus 11-cis-retinal, HierDock Eq. 1
# Excerpt: The negative of the molecular surface of the protein was used to define potential binding regions within the target protein over which the various ligand conformations are to be sampled. The void regions are mapped with spheres generated over the whole target protein using the Sphgen program in DOCK (see Kuntz laboratory at UCSF, San Francisco, Calif.).
# To locate the most favorable ligand binding site(s), DOCK 4.0 (Ewing and Kuntz, 1997, incorporated herein by reference) can be used to generate a set of conformations for binding the ligand of interest (e.g. in the case of rhodopsin, 11-cis-retinal—a ligand known to bind to bovine rhodopsin) to each of the overlapping docking regions identified above. For this docking step, a bump filter of 10, a non-distance-dependent dielectric constant of 1.0, and a cutoff of 10 Å may be used for energy evaluation. These values may be adjusted according to specific target proteins. […]
# The ligand/protein conformations from Step 5 are further energy-minimized with all atoms (protein, lipid, and ligand) movable using conjugate gradients. The structure with the binding energy calculated by Eq. 1 is selected as: BE1=Energy[ligand in protein complex]−Energy[free Ligand in solvent] […]
# Here the energy of the ligand in water is calculated using DREIDING FF and analytical volume Generalized-Born continuum solvation (GBCS) method. […]
# rhodopsin [2] = biological target: T1, rhodopsin; details: experimental result, retinal ligand/protein complex, Okada et al., 2001; cited from earlier work
# T1 sequence (P02699 whole entry): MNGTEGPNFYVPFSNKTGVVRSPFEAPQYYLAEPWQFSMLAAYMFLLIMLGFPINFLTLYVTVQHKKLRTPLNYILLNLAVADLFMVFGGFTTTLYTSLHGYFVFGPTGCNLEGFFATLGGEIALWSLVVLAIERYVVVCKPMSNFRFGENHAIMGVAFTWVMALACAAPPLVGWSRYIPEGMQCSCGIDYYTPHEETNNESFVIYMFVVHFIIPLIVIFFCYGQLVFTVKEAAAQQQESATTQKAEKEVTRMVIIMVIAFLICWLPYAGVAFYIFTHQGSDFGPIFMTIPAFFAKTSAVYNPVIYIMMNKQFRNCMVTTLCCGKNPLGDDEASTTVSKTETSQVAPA
# bovine rhodopsin, sequence (P02699 whole entry): as above
compound,measurement,setting,value
CC1=C(/C=C/C(C)=C/C=C/C(C)=C/C=O)C(C)(C)CCC1 [11-cis-retinal],effect on G-protein signaling,rhodopsin [1],inverse agonist
CC1=C(/C=C/C(C)=C/C=C/C(C)=C/C=O)C(C)(C)CCC1 [all-trans-retinal],difference in binding energy,bovine rhodopsin,32 kcal/mol
CC1=C(/C=C/C(C)=C/C=C/C(C)=C/C=O)C(C)(C)CCC1 [retinal],energy stored upon isomerization in the protein,rhodopsin [2],34.7 ± 2.2 kcal/mol
